Laboratory results taken from patent US8889743B2 (priority 2007, dated 2014).

Experiments:
[1] = system: Ebola virus GP pseudotype; type: cell-based
VSV GP pseudotype = type: cell-based, Vesicular stomatitis virus
[2] = system: Ebola virus pseudotyped VSV particles; type: cell-based
[3] = system: EBOV pseudotyped lentivirus; assay: microbe, parasite or virus in culture; type: cell-based, EBOV Zaire strain
[4] = system: retrovirus pseudotypes bearing Ebola virus env; type: cell-based
[5] = system: retrovirus pseudotypes bearing eMLV (Fr-MLV) env; type: cell-based, ecotropic murine leukemia virus
[6] = system: Venezuelan equine encephalitis virus (VEEV) pseudotyped VSV particles; type: cell-based
[7] = system: wild type Ebola virus, Zaire strain; type: cell-based; settings: 7 days
[8] = system: live Ebola virus (Zaire strain); type: cell-based; settings: 10 days

CCN(CC)CCCC(C)Nc1nc(C)cc(Nc2ccc3nc(C)cc(N)c3c2)n1 (racemic) [Rac1 inhibitor]
entry of Ebola virus GP pseudotype (luciferase activity) [1]: inhibits Ebola virus entry
entry of VSV GP pseudotype (luciferase activity) (VSV GP pseudotype): unaffected

COc1ccc([C@@H]2Sc3ccccc3N(CCN(C)C)C(=O)[C@@H]2OC(C)=O)cc1 [Diltiazem]
infection by virus-like particles bearing Ebola virus env (GFP-expressing cells) [2]: potent and specific blockers

COc1ccc(S(=O)(=O)Nc2ccccc2CN(C)C/C=C/c2ccc(Cl)cc2)cc1 [KN-92]
reduction in infection by the pseudotyped virus [3]: ~50%
infection of the VSV core EBOV pseudotyped virus [2]: not

COc1ccc(S(=O)(=O)N(CCO)c2ccccc2CN(C)C/C=C/c2ccc(Cl)cc2)cc1 [KN-93]
infection by retrovirus pseudotype bearing Ebola virus env (luciferase activity) [4]: strong effect
infection of the VSV core EBOV pseudotyped virus [2]: significantly impacted
infection with Ebola virus pseudotyped VSV particles ([2]; 10 μM): specifically blocked infection
infection by retrovirus pseudotype bearing eMLV env (luciferase activity) [5]: blocking only the Ebola infection

O=c1cc(N2CCOCC2)oc2c(-c3ccccc3)cccc12 [LY294002]
IC50 ([3]; Zaire ebolavirus, HEK293, read-out: IC50 value for infection of EBOV pseudotyped lentivirus): 6.5 ± 1.1 µM

COCCOC(=O)C1=C(C)NC(C)=C(C(=O)OC(C)C)C1c1cccc([N+](=O)[O-])c1 (stereo not shown) [Nimodopine]
Ebola virus-like particle infection/entry, calmodulin inhibitors and L-channel blocking drugs [2]: effective

CC(COc1ccccc1)N(CCCl)Cc1ccccc1 (stereo not shown) [Phenoxybenzamine]
Venezuelan equine encephalitis virus-like particle infection [6]: not
Ebola virus-like particle infection/entry, calmodulin inhibitors and L-channel blocking drugs [2]: inhibited

COc1ccc2cc1Oc1ccc(cc1)C[C@H]1c3cc(c(OC)cc3CCN1C)Oc1c(OC)c(OC)cc3c1[C@H](C2)N(C)CC3 [Tetrandine]
infection by virus-like particles bearing Ebola virus env (GFP-expressing cells) [2]: potent and specific blockers

CN1CCN(CCCN2c3ccccc3Sc3ccc(C(F)(F)F)cc32)CC1 [Trifluorperazine]
Venezuelan equine encephalitis virus-like particle infection [6]: not
Ebola virus-like particle infection/entry, calmodulin inhibitors and L-channel blocking drugs [2]: inhibited

N#CC(=C(/N)Sc1ccccc1N)/C(C#N)=C(\N)Sc1ccccc1N [U0126]
entry of Ebola virus GP pseudotype (luciferase activity) [1]: not

COc1ccc(CCN(C)CCCC(C#N)(c2ccc(OC)c(OC)c2)C(C)C)cc1OC (stereo not shown) [Verapamil]
Ebola virus-like particle infection/entry, calmodulin inhibitors and L-channel blocking drugs [2]: highly effective
Ebola virus induced cytopathic effect [7]: reduced or significantly prevented

NCCCCCCNS(=O)(=O)c1cccc2c(Cl)cccc12 [W7]
Venezuelan equine encephalitis virus-like particle infection [6]: not
Ebola virus-like particle infection/entry, calmodulin inhibitors and L-channel blocking drugs [2]: inhibited

Cl.N [ammonium chloride]
entry of Ebola virus GP pseudotype (luciferase activity), assay validation [1]: sensitive

CO/C1=C\C(C)=C\[C@@H](C)[C@@H](O)[C@@H](C)C/C(C)=C/C=C/[C@H](OC)[C@@H]([C@@H](C)[C@@H](O)[C@H](C)[C@@]2(O)C[C@@H](O)[C@H](C)[C@@H](C(C)C)O2)OC1=O [bafilomycin A1]
entry of Ebola virus GP pseudotype (luciferase activity), assay validation [1]: sensitive

Methoxyverapamil
Ebola virus-like particle infection/entry, calmodulin inhibitors and L-channel blocking drugs [2]: highly effective
infection of live Ebola Zaire virus (plaque numbers normalized to DMSO) [8]: inhibition of infection
